Measurements reported in the supplement of paper PMC10307832.

Key:
Experiment in all cases: relative viability (nuclei count vs DMSO), 5 days (fraction); higher = more cells survive
Apatinib + Palbociclib = compound: N#CC1(c2ccc(NC(=O)c3cccnc3NCc3ccncc3)cc2)CCCC1 [Apatinib] + CC(=O)c1c(C)c2cnc(Nc3ccc(N4CCNCC4)cn3)nc2n(C2CCCC2)c1=O [Palbociclib] (partner 0.5 µM)
In short: (§1)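 Five library-drug doses in √10 steps were combined with a fixed anchor-drug dose, or a single drug was given alone, by pin tool to lung cancer cell lines in 1536-well plates the day after seeding. Nuclei were stained and counted after 5 days. Relative viability is the nuclei count in treated wells over that in vehicle wells, taken as the median of duplicate plates.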

Apatinib + Tozasertib = compound: N#CC1(c2ccc(NC(=O)c3cccnc3NCc3ccncc3)cc2)CCCC1 [Apatinib] + Cc1cc(Nc2cc(N3CCN(C)CC3)nc(Sc3ccc(NC(=O)C4CC4)cc3)n2)n[nH]1 [Tozasertib] (partner 0.1 µM)
In short: as §1

Apatinib + Phenformin = compound: N#CC1(c2ccc(NC(=O)c3cccnc3NCc3ccncc3)cc2)CCCC1 [Apatinib] + N=C(N)NC(=N)NCCc1ccccc1 [Phenformin] (partner 250 µM)
In short: as §1

Apatinib + Alpelisib = compound: N#CC1(c2ccc(NC(=O)c3cccnc3NCc3ccncc3)cc2)CCCC1 [Apatinib] + Cc1nc(NC(=O)N2CCC[C@H]2C(N)=O)sc1-c1ccnc(C(C)(C)C(F)(F)F)c1 [Alpelisib] (partner 2 µM)
In short: as §1

| Cell Line | relative viability (Apatinib + Palbociclib; first compound 0.08 µM) | relative viability (Apatinib + Palbociclib; first compound 0.253 µM) | relative viability (Apatinib + Palbociclib; first compound 0.8 µM) | relative viability (Apatinib + Palbociclib; first compound 2.53 µM) | relative viability (Apatinib + Palbociclib; first compound 8 µM) | relative viability (Apatinib + Tozasertib; first compound 0.08 µM) | relative viability (Apatinib + Tozasertib; first compound 0.253 µM) | relative viability (Apatinib + Tozasertib; first compound 0.8 µM) | relative viability (Apatinib + Tozasertib; first compound 2.53 µM) | relative viability (Apatinib + Tozasertib; first compound 8 µM) | relative viability (Apatinib + Phenformin; first compound 0.08 µM) | relative viability (Apatinib + Phenformin; first compound 0.253 µM) | relative viability (Apatinib + Phenformin; first compound 0.8 µM) | relative viability (Apatinib + Phenformin; first compound 2.53 µM) | relative viability (Apatinib + Phenformin; first compound 8 µM) | relative viability (Apatinib + Alpelisib; first compound 0.08 µM) | relative viability (Apatinib + Alpelisib; first compound 0.253 µM) | relative viability (Apatinib + Alpelisib; first compound 0.8 µM) | relative viability (Apatinib + Alpelisib; first compound 2.53 µM) | relative viability (Apatinib + Alpelisib; first compound 8 µM) |
| --- | --- | --- | --- | --- | --- | --- | --- | --- | --- | --- | --- | --- | --- | --- | --- | --- | --- | --- | --- | --- |
| LU99A | 0.505 | 0.489 | 0.383 | 0.339 | 0.328 | 0.325 | 0.317 | 0.276 | 0.231 | 0.203 | 0.914 | 1.01 | 0.816 | 0.799 | 0.813 | 0.565 | 0.618 | 0.457 | 0.49 | 0.461 |
| LXF-289 | 0.594 | 0.593 | 0.567 | 0.568 | 0.562 | 0.211 | 0.247 | 0.171 | 0.175 | 0.132 | 0.543 | 0.527 | 0.519 | 0.496 | 0.468 | 1.13 | 1.06 | 1.03 | 0.998 | 0.964 |
| NCI-H522 | 1.03 | 1.18 | 1.06 | 0.928 | 0.903 | 0.48 | 0.487 | 0.693 | 0.504 | 0.567 | 0.708 | 0.696 | 0.638 | 0.617 | 0.669 | – | – | – | – | – |
| NCI-H596 | – | – | – | – | – | 1.05 | 0.965 | 0.854 | 0.705 | 0.631 | 0.801 | 0.724 | 0.723 | 0.705 | 0.711 | 0.535 | 0.528 | 0.579 | 0.402 | 0.222 |
| NCI-H1299 | – | – | – | – | – | – | – | – | – | – | – | – | – | – | – | 1.06 | 1.05 | 1.03 | 1.04 | 0.929 |
| NCI-H1563 | – | – | – | – | – | – | – | – | – | – | 0.642 | 0.705 | 0.75 | 0.517 | 0.623 | 0.967 | 0.982 | 0.929 | 0.93 | 0.804 |
| NCI-H1648 | 0.273 | 0.218 | 0.328 | 0.273 | 0.274 | 0.484 | 0.346 | 0.563 | 0.366 | 0.197 | – | – | – | – | – | – | – | – | – | – |
| NCI-H1650 | 0.262 | 0.352 | 0.323 | 0.299 | 0.303 | – | 0.334 | 0.329 | 0.257 | 0.26 | – | 0.503 | 0.35 | 0.35 | 0.318 | – | – | – | – | – |
| NCI-H1703 | – | – | – | – | – | – | – | – | – | – | – | – | – | – | – | 0.289 | 0.252 | 0.25 | 0.175 | 0.17 |
| NCI-H1792 | 0.662 | 0.651 | 0.577 | 0.633 | 0.622 | – | – | – | – | – | 0.5 | 0.227 | 0.235 | 0.111 | 0.184 | 0.794 | 0.743 | 0.68 | 0.641 | 0.553 |
| NCI-H2342 | 0.497 | 0.524 | 0.49 | 0.498 | 0.572 | 0.527 | 0.492 | 0.53 | 0.455 | 0.373 | 0.526 | 0.588 | 0.585 | 0.569 | 0.577 | – | – | – | – | – |
| SW 900 | 0.616 | 0.548 | 0.558 | 0.478 | 0.435 | 0.504 | 0.54 | 0.442 | 0.323 | 0.2 | 0.714 | 0.606 | 0.54 | 0.362 | 0.425 | – | – | – | – | – |
